Water uptake data for 1 molecule are collected here from patent publication US20040224014A1, “Non-hygroscopic pharmaceutical compositions containing non-hydrated quinoline carboxylic acids” (The Jordanian pharmaceutical manufacturing Co., priority 2003, published 2004).

Each structure is given as a SMILES string.

The data set is described as follows: Water uptake of norfloxacin and its formulations (FIG. 1). The conditions noted are these: depending on manufacturing procedure (wet or dry granulation) and storage temperature and humidity. The format is physicochemical. The source says:
The water uptake for norfloxacin and its formulations may reach up to 30% and more depending on the manufacturing procedures (wet or dry granulation), and storage conditions of temperature and humidity (see FIG. 1).

Turning to `CCn1cc(C(=O)O)c(=O)c2cc(F)c(N3CCNCC3)cc21` [norfloxacin], the water uptake is listed as approximately 30%.
